According to patent US20150079156A1, “LIPOSOMAL DELIVERY SYSTEM” (THE QUEEN'S UNIVERSITY OF BELFAST, priority 2012, published 2015):

Columns and labels:
[1] = In vitro release of BSA from liposomes, dialysis method; format: physicochemical; conditions: free BSA, 4 h, 37° C., PBS pH 7.4
Protocol: in vitro release experiments of BSA from liposomes were performed at 37°±0.5° C. using the dialysis method under constant shaking (60 rpm). A 10 ml of phosphat buffered saline (PBS) pH 7.4 was used to test for the drug release for 48 h. Dialysis bags (Spectra/Por Biotech Cellulose Ester Dialysis Membrane MWCO: 300,000 Spectrum Ls Rancho Dominguez, Calif., USA) containing 500 μl liposomes were introduced into the system. All of the release media was withdrawn and replaced with the same volume of fresh medium at designated time points to maintain sink conditions. The sampled medium (1.0 ml out of 10 ml) was mixed with Bradford's reagent and the absorbance was measured as described in the method for determination of encapsulation efficiency. The concentration of the BSA released from the liposomes was calculated from the obtained linear calibration curve (r≧0.99) as previously described in the method for determination of encapsulation efficiency.

[2] = Nasal tissue penetration, Franz type permeation cell, CLSM; format: in vitro ADME, bovine; conditions: CF loaded, 1 hour incubation, 37° C.
Protocol: To investigate the ability of the TPGS:DDA:SPC liposomes of Example 1 to cross nasal mucosa and penetrate into bovine nasal tissue fresh bovine nasal tissues were collected from freshly slaughtered animals. The mucosal tissue was removed and preserved in Krebs Bicarbonate Ringer (KBR) buffer pH 7.4. Liposome penetration studies were performed immediately to maintain the viability of the cells tissue being used. A Franz type permeation cell was used in this study; the recipient compartment filled with KBR buffer and stirred constantly. The temperature of the Franz cell was maintained at 37° C. with jacketed water flow. A 1.5 cm^2 tissue section was inserted between the recipient and donor compartments and 0.5 ml of reconstituted liposomal dispersion or free carboxyfluorescein (CF) solutions containing an equivalent amount of CF were loaded into the donor compartment, and left for 1 hour incubation. The tissues were then washed with KBR buffer and frozen in optimal cutting temperature compound at −80° C. for cryosection. Samples of 10 μm thickness were obtained using a cryostat (MICROM HM 550). Propidium iodide (PI) solution was used to stain the cell nuclei and cryosectioned tissues were mounted in glycerol containing 1,4-phenylenediamine (0.1 g/l). Penetration was observed using confocal laser scanning microscopy (CLSM). […]

[3] = system: human lung epithelial cell line L-132; test: Cell uptake of CF-loaded liposomal formulations (fluorometry, flow cytometry, CLSM); format: cell-based; conditions: L-132 cells, 0.5-2 h at 37° C., 1:100 dilution
Protocol: Cells from the human lung epithelial cell line L-132 were cultured in MEM medium containing Earle's salts and L-glutamine and supplemented with 10% fetal calf serum (FCS), under standard conditions at 37° C. with 5% CO2 and 95% air. To validate the fluorimetric analysis, a standard curve was created during each assay. To perform the fluorometric assay cells were seeded at 25×10^4 cells/well onto 24-well plates (total volume was 1 ml/well). Twenty four hours later, the culture medium was removed. The formulations were added to the cells in 1:100 dilution in MEM medium (10 μl of liposomes suspension+990 μl medium) and incubated for 0.5-2 h at 37° C. Following incubation cells were washed two times with cold PBS to end the uptake experiment. Then the washed cells were lysed with 0.2% Triton X-100 in 0.2 N NaOH (1.0 ml/well) for 0.5-1 hour at room temperature. Aliquots from each well were transferred into 96-well plates. The cell fluorescence intensity was determined using a microplate fluorometer at an excitation wavelength of 485 nm and emission wavelength of 520 nm and Gain level set to 800 in the software (FIG. 4). […] The cells were kept on ice and analysized by flow cytometry using a FACscan flow cytometer for cell-associated CF fluorescence. The mean fluorescence intensity of cells was determined for each sample (FIG. 5). […]

penetration into bovine nasal tissue (CLSM) [2] | Substance | cumulative release of BSA [1] [%] | amount of CF incorporated into cells [3]
– | bovine serum albumin [free BSA] | 46.6±2.6 | –
completely washed out | carboxyfluorescein [free CF] | – | free CF<CF-loaded SPC liposomes <CF-loaded TPGS:DDA:SPC liposomes
